Results published in patent publication US12180139B2, “Method for preparing aminoalkanoic acid derivative containing biphenyl group” (AMTIXBIO CO., LTD., priority 2019, dated 2024).

What was measured:
[1] = test system: C. glabrata; details: RPMI1640 broth, 35° C., 48 hours, visual reading; expressed as a range value
[2] = test system: interleukin 6 (IL-6); details: RAW264.7 cells, compound 8 μg/mL 1 hour, then LPS 1 μg/mL 24 hours; relative to LPS without compound
Experimental: The anti-inflammatory effects of the compounds of the present invention were evaluated using RAW264.7 cells which were stimulated to secrete interleukin 6 (IL-6). Specifically, RAW264.7 cells (obtained from Korean Cell Line Bank), mouse macrophages, were inoculated into a 12-well plate at 5×10^5 cells/well and incubated at 37° C. for 16 to 24 hours. The compounds of the present invention were added to the cell culture medium containing RAW264.7 cells incubated as above at a final concentration of 0 or 8 μg/ ? , and then incubated at 37° C. for 1 hour. Next, lipopolysaccharide (LPS, Sigma-Aldrich, USA) was further added to the medium at a final concentration of 1 μg/ ? , and the medium was incubated at 37° C. for 24 hours to induce IL-6 expression. Thereafter, IL-6 levels produced by the RAW264.7 cells were measured using an ELISA kit (Komabiotech Inc. Korea) according to the manufacturer's instructions. In Table 9, IL6 levels were expressed as a relative percentage (%) between LPS-induced IL6 levels after the treatment with the compound of the present invention and LPS-induced IL6 levels without the treatment of the compound of the present invention.

[3] = test system: C. albicans; details: RPMI1640 broth, 35° C., 48 hours, visual reading; expressed as a range value
Experimental: (§2) An in vitro antifungal susceptibility test was performed in accordance with the US Clinical and Laboratory Standards Institute (CLSI) guidelines to measure the degree of antifungal activity of the compounds synthesized in the Preparation Examples against opportunistic pathogenic fungi. […] The MIC value (μg/ ? ) is expressed as a range value. Specifically, Candida species and Cryptococcus neoformans were incubated in a Sabouraud dextrose agar (SDA) (Sigma-Aldrich) solid medium for 24 and 48 hours, respectively to obtain single colonies. The obtained single colonies were suspended in 0.85% physiological saline to prepare fungal cell suspension (1 to 5×10^6 cells/ ? ). Fungal cells 2000-fold diluted in RPMI1640 broth (Sigma-Aldrich) were seeded on 96-well plates (5×10^2 to 2.5×10^3 cells/ ? , 195 ? /well). Serial two-fold dilutions (128, 64, 32, 16, 8, 4, 2, 1, and 0.5 μg/ ? ) of compounds were prepared by diluting the compounds synthesized according to the above preparation examples. Then, 5 ? from each dilution was added to the well of the 96-well plate containing fungal cell suspension to give a final suspension of 200 ? per well. […] As a positive control, amphotericin B (AMB), which is highly toxic to the human body but is known as a representative antifungal agent, was used.

[4] = test system: A. fumigatus; details: visual reading; expressed as a range value
Experimental: as §2

[5] = test system: C. neoformans; details: RPMI1640 broth, 35° C., 72 hours, visual reading; expressed as a range value
Experimental: as §2

[6] = test system: E. coli (−); assay: Antibacterial MIC test (CLSI); type: cell-based; details: MHB liquid medium, 37° C., 24 hours
Experimental: (§1) The MIC test was conducted in accordance CLSI guidelines. […] As a positive control, Nofloxacin and Vancomycin were used.

[7] = test system: M. luteus (+); assay: Antibacterial MIC test (CLSI); type: cell-based; details: MHB liquid medium, 37° C., 24 hours
Experimental: as §1

[8] = test system: P. acnes (+); assay: Antibacterial MIC test (CLSI); type: cell-based; details: MHB liquid medium, 37° C., 24 hours
Experimental: as §1

[9] = test system: B. coagulans (+); assay: Antibacterial MIC test (CLSI); type: cell-based; details: MHB liquid medium, 37° C., 24 hours
Experimental: as §1

[10] = test system: S. aureus enterica (−); assay: Antibacterial MIC test (CLSI); type: cell-based; details: MHB liquid medium, 37° C., 24 hours
Experimental: as §1

[11] = test system: L. monocytogenes (+); assay: Antibacterial MIC test (CLSI); type: cell-based; details: MHB liquid medium, 37° C., 24 hours
Experimental: as §1

[12] = test system: B. subtilis (+); assay: Antibacterial MIC test (CLSI); type: cell-based; details: MHB liquid medium, 37° C., 24 hours
Experimental: as §1

[13] = test system: B. cereus (+); assay: Antibacterial MIC test (CLSI); type: cell-based; details: MHB liquid medium, 37° C., 24 hours
Experimental: as §1

[14] = test system: MRSA; assay: Antibacterial MIC test (CLSI); type: cell-based, Methicillin-resistant Staphylococcus aureus; details: MHB liquid medium, 37° C., 24 hours
Experimental: as §1

[15] = test system: S. aureus (+); details: MHB liquid medium, 37° C., 24 hours
[16] = test system: S. epidermidis (+); details: MHB liquid medium, 37° C., 24 hours

SMILES: CCCC(N)C(=O)NCc1ccc(-c2ccc(Cl)c(Cl)c2)cc1.Cl (racemic) [Compound 45, (R)/(S)-2-amino-N-((3′,4′-dichloro-[1,1′-biphenyl]-4-yl)methyl)pentanamide hydrochloride]
- MIC (μg/mL) C. glabrata [1]: 8~32 μg/mL
- Relative IL-6 levels (%) [2]: 3%
- MIC (μg/mL) C. albicans [3]: 8~32 μg/mL
- MIC (μg/mL) A. fumigatus [4]: 8~32 μg/mL
- MIC (μg/mL) C. neoformans [5]: 2~8 μg/mL

SMILES: CCCC(N)C(=O)NCCc1ccc(-c2ccc(C(F)(F)F)cc2)cc1.Cl (racemic) [Compound 77, (R)/(S)-2-amino-N-(2-(4′-(trifluoromethyl)-[1,1′-biphenyl]-4-yl)ethyl)pentanamide hydrochloride]
- MIC (μg/mL) C. glabrata [1]: 8~32 μg/mL
- Relative IL-6 levels (%) [2]: 5%
- MIC (μg/mL) C. albicans [3]: 8~32 μg/mL
- MIC (μg/mL) A. fumigatus [4]: 8~32 μg/mL
- MIC (μg/mL) C. neoformans [5]: 4~16 μg/mL

SMILES: CCCC(C(=O)NCc1ccc(-c2ccc(Cl)c(Cl)c2)cc1)N(C)C (racemic) [Compound 53, (R)/(S)-N-((3′,4′-dichloro-[1,1′-biphenyl]-4-yl)methyl)-2-(dimethylamino)pentanamide]
- MIC (μg/mL) C. glabrata [1]: 8~32 μg/mL
- Relative IL-6 levels (%) [2]: 5%
- MIC (μg/mL) C. albicans [3]: 8~32 μg/mL
- MIC (μg/mL) A. fumigatus [4]: 8~32 μg/mL
- MIC (μg/mL) C. neoformans [5]: 2~8 μg/mL

SMILES: CCCC(C(=O)Nc1ccc(-c2ccc(Cl)c(Cl)c2)cc1)N(C)C (racemic) [Compound 36, (R)/(S)-N-(3′,4′-dichloro-[1,1′-biphenyl]-4-yl)-2-(dimethylamino)pentanamide]
- MIC (μg/mL) C. glabrata [1]: 4~16 μg/mL
- Relative IL-6 levels (%) [2]: 9%
- MIC (μg/mL) C. albicans [3]: 4~16 μg/mL
- MIC (μg/mL) A. fumigatus [4]: 4~16 μg/mL
- MIC (μg/mL) C. neoformans [5]: 2~8 μg/mL

SMILES: CCCC(N)C(=O)NCc1ccc(-c2ccc(OC(F)(F)F)cc2)cc1.Cl (racemic) [Compound 49, (R)/(S)-2-amino-N-((4′-(trifluoromethoxy)-[1,1′-biphenyl]-4-yl)methyl)pentanamide hydrochloride]
- MIC (μg/mL) C. glabrata [1]: 8~32 μg/mL
- Relative IL-6 levels (%) [2]: 50%
- MIC (μg/mL) C. albicans [3]: 8~32 μg/mL
- MIC (μg/mL) A. fumigatus [4]: 8~32 μg/mL
- MIC (μg/mL) C. neoformans [5]: 4~16 μg/mL

SMILES: CCCCC(N)C(=O)NCc1ccc(-c2ccc(C(F)(F)F)cc2)cc1.Cl (racemic) [Compound 48, (R)/(S)-2-amino-N-((4′-(trifluoromethyl)-[1,1′-biphenyl]-4-yl)methyl)hexanamide hydrochloride]
- MIC (μg/mL) C. glabrata [1]: 4~16 μg/mL
- Relative IL-6 levels (%) [2]: 67%
- MIC (μg/mL) C. albicans [3]: 4~16 μg/mL
- MIC (μg/mL) A. fumigatus [4]: 4~16 μg/mL
- MIC (μg/mL) C. neoformans [5]: 4~16 μg/mL

SMILES: CCCC(NC)C(=O)NCc1ccc(-c2ccc(C(F)(F)F)cc2)cc1.Cl (racemic) [Compound 52, (R)/(S)-2-(methylamino)-N-((4′-(trifluoromethyl)-[1,1′-biphenyl]-4-yl)methyl)pentanamide hydrochloride]
- MIC (μg/mL) C. glabrata [1]: 8~32 μg/mL
- Relative IL-6 levels (%) [2]: 13%
- MIC (μg/mL) C. albicans [3]: 8~32 μg/mL
- MIC (μg/mL) A. fumigatus [4]: 8~32 μg/mL
- MIC (μg/mL) C. neoformans [5]: 4~16 μg/mL

SMILES: CCC(NC)C(=O)NCCc1ccc(-c2ccc(Cl)c(Cl)c2)cc1.Cl (racemic) [Compound 83, (R)/(S)-N-(2-(3′,4′-dichloro-[1,1′-biphenyl]-4-yl)ethyl)-2-(methylamino)butanamide hydrochloride]
- MIC (μg/mL) C. glabrata [1]: 8~32 μg/mL
- Relative IL-6 levels (%) [2]: 9%
- MIC (μg/mL) C. albicans [3]: 8~32 μg/mL
- MIC (μg/mL) A. fumigatus [4]: 8~32 μg/mL
- MIC (μg/mL) C. neoformans [5]: 2~8 μg/mL

SMILES: CCCCC(N)C(=O)NCc1ccc(-c2ccc(OC(F)(F)F)cc2)cc1.Cl (racemic) [Compound 50, (R)/(S)-2-amino-N-((4′-(trifluoromethoxy)-[1,1′-biphenyl]-4-yl)methyl)hexanamide hydrochloride]
- MIC (μg/mL) C. glabrata [1]: 4~16 μg/mL
- Relative IL-6 levels (%) [2]: 68%
- MIC (μg/mL) C. albicans [3]: 4~16 μg/mL
- MIC (μg/mL) A. fumigatus [4]: 4~16 μg/mL
- MIC (μg/mL) C. neoformans [5]: 4~16 μg/mL

SMILES: CCCC(N)C(=O)NCc1ccc(-c2ccc(C(F)(F)F)cc2)cc1.Cl (racemic) [Compound 47, (R)/(S)-2-amino-N-((4′-(trifluoromethyl)-[1,1′-biphenyl]-4-yl)methyl)pentanamide hydrochloride]
- MIC (μg/mL) C. glabrata [1]: 8~32 μg/mL
- Relative IL-6 levels (%) [2]: 12%
- MIC (μg/mL) C. albicans [3]: 8~32 μg/mL
- MIC (μg/mL) A. fumigatus [4]: 8~32 μg/mL
- MIC (μg/mL) C. neoformans [5]: 4~16 μg/mL

SMILES: CCC(N)C(=O)NCCc1ccc(-c2ccc(C(F)(F)F)cc2)cc1.Cl (racemic) [Compound 76, (R)/(S)-2-amino-N-(2-(4′-(trifluoromethyl)-[1,1′-biphenyl]-4-yl)ethyl)butanamide hydrochloride]
- MIC (μg/mL) C. glabrata [1]: 8~32 μg/mL
- Relative IL-6 levels (%) [2]: 9.58%
- MIC E. coli (−) [6]: 16 µg/mL
- MIC M. luteus (+) [7]: 16 µg/mL
- MIC P. acnes (+) [8]: 16 µg/mL
- MIC B. coagulans (+) [9]: <4 µg/mL
- MIC S. aureus enterica (−) [10]: 32 µg/mL
- MIC L. monocytogenes (+) [11]: 16 µg/mL
- MIC B. subtilis (+) [12]: 16 µg/mL
- MIC B. cereus (+) [13]: 64 µg/mL
- MIC MRSA [14]: 32 µg/mL
- MIC (μg/mL) C. albicans [3]: 16~64 μg/mL
- MIC S. aureus (+) [15]: 32 µg/mL
- MIC S. epidermidis (+) [16]: 16 µg/mL
- MIC (μg/mL) A. fumigatus [4]: 8~32 μg/mL
- MIC (μg/mL) C. neoformans [5]: 8~32 μg/mL

SMILES: CCCC(N)C(=O)NCCc1ccc(-c2ccc(OC(F)(F)F)cc2)cc1.Cl (racemic) [Compound 80, (R)/(S)-2-amino-N-(2-(4′-(trifluoromethoxy)-[1,1′-biphenyl]-4-yl)ethyl)pentanamide hydrochloride]
- MIC (μg/mL) C. glabrata [1]: 4~16 μg/mL
- Relative IL-6 levels (%) [2]: 6%
- MIC (μg/mL) C. albicans [3]: 4~16 μg/mL
- MIC (μg/mL) A. fumigatus [4]: 4~16 μg/mL
- MIC (μg/mL) C. neoformans [5]: 2~8 μg/mL
